# Patent US9597307B2 (priority 2012, dated 2017)
# Like-named read-outs stand apart in the source and are kept apart here.
# Key:
# Wistar rats = conditions: high fructose diet, two weeks of daily injections 10 mg/kg, vs vehicle-treated control
# From the text: For intraperitoneal pyruvate tolerance tests, a high fructose diet was used to induce insulin resistance on a group of Wistar rats. […] Intraperitoneal pyruvate tolerance tests are a procedure where pyruvate is converted to glucose in gluconeo-genesis. The test specifically reflects the insulin sensitivity of the liver.
# [1] = cited from earlier work; for toxicity in studies / clinical testing: other indications (cancer and immune diseases), high doses
# H-4-II-E cells = conditions: without or with 10 or 100 nM insulin, FIG. 3
# Method: H-4-II-E cells were seeded 110,000/well in 24-well plates in their usual medium (EMEM from ATCC, no 30-2003 with addition of 10% FBS and penicillin/streptomycin) at day 0 and incubated with 0.25 mM palmitate-BSA (ratio 10:3) for 16 h ON day 2-3. […] The cells were washed 3 times with glucose output medium (GOM) without glucogenic substrates (118 mM NaCl, 4.7 mM KCl, 1.2 mM MgSO4, 1.2 mM KH2P04, 1.2 mM CaC12, 20 mM NaHCO3, 25 mM HEPES pH 7.4 and 0.025% BSA). Then 500 ul of GOM (118 mM NaCl, 4.7 mM KCl, 1.2 mM MgSO4, 1.2 mM KH2PO4, 1.2 mM CaCl2, 20 mM NaCO3, 25 mM HEPES pH 7.4, 0.025% BSA, 20 mM lactate, 2 mM pyruvate and 10 mM glutamine) and GOM with the addition of 10 or 100 nM insulin was added, and the cells were allowed to incubate for 5 h. After that, most of the incubation medium (375 ul) was removed and used for glucose measurements. The cells were washed once with cold PBS and lyzed with 200 ul RIPA buffer for determination of protein concentration. […] Glucose concentration in the buffer samples was determined using the AmplexRed Glucose/Glucose Oxidase Assay Kit (LifeTechnologies no. A22189) following the manufacturer's instructions. Protein concentration in the cell lysates was measured using Pierce BCA Protein Assay Kit (ThermoScientific no. 23225).
# T2D signature = conditions: Wistar rats, high fructose diet, two weeks of daily injections 10 mg/kg; p<0.0001 using Fisher's exact test
# From the text: In a first attempt to use gene network analyses for drug repositioning, a panel of 50 genes that are perturbed in the liver in T2D (‘T2D signature’) were identified. The genes were selected using differential expression analysis, causality tests, and a Bayesian network algorithm to identify genes that regulate the expression of several other disease genes (‘key regulators’).
# A high fructose diet was used to induce insulin resistance on a group of Wistar rats.
structure (smiles),measurement,setting,value
C[S+]([O-])CCCCN=C=S (stereo not drawn) [sulforaphane],intraperitoneal pyruvate tolerance (insulin sensitivity of the liver),Wistar rats; FIG. 2,significant positive effect
same,intraperitoneal pyruvate tolerance (insulin sensitivity of the liver),"Wistar rats; FIG. 2, listed as Sulforaphane",showed significant differences from a vehicle-treated control group
same,result of the experiments repeated in animals on high-fat diet,animals on high-fat diet,positive results
same,serious adverse events in ongoing studies,[1]; ongoing studies for other indications,no serious adverse events have been reported
same,toxicity in studies / clinical testing,[1],low toxicity even at high doses
same,toxicity in studies / clinical testing,[1]; listed as Sulforaphane,very low toxicity even at high doses
same,"hepatic glucose output, insulin-sensitive liver cells",H-4-II-E cells; 10 uM sulforaphane for 28 h,decreases hepatic glucose output
same,"hepatic glucose output, insulin-resistant (induced by palmitate) liver cells","H-4-II-E cells; 0.25 mM palmitate-BSA 16 h, then 10 uM sulforaphane for 28 h",decreases hepatic glucose output
same,reversal of genes in the T2D signature in liver,T2D signature,a major fraction of the genes in the T2D signature was reversed
